Laboratory results: patent US20090227572A1, “TREATMENT OF DIABETIC WOUNDS AND PERIPHERAL NEUROPATHIES” (Cytrx Corporation, priority 2007, published 2009)

Experiments:
[1] = Morbidity, mortality and body weights in the wound healing study (Example 1); assay type: in vivo, mice
Procedure: The mice began daily dosing as detailed in Table 1 on the day of wounding. The mice continued to receive daily treatment until wound closure as determined by the study director and the client. Blood glucose levels were measured by glucometer prior to the first scheduled dosing and weekly thereafter-using blood collected by tail nick. Body weights were measured weekly beginning prior to treatment. Clinical observations were conducted weekly.

[2] = rat, subchronic studies; cited from earlier work
[3] = mice, previously determined; cited from earlier work
[4] = test system: Homozygous, diabetic mice; experiment: Wound healing in homozygous diabetic mice, systemic or topical administration (Example 2); assay type: in vivo; conditions: topical administration, 4% w/v aqueous solution, FIG. 7
Procedure: Homozygous, diabetic mice described above, and wounded in the manner described above in Example 1, were treated by topical administration of iroxanadine or arimoclomol. A 4% w/v aqueous solution of arimoclomol were separately administered topically to the wounded position. […] dosage of iroxanadine was at 10 mg/kg IP, b.i.d., a relatively low concentration.

[5] = test system: BKS.Cg-m^+/+ Lepr^db/J homozygous mice; experiment: Wound healing in diabetic db/db mice, daily oral dosing (Example 1); assay type: in vivo
Description: Seventy male BKS.Cg-m^+/+ Lepr^db/J homozygous mice were housed and handled for seven (7) days prior to commencement of the procedure for acclimation purposes. The mice weighed 26.1-41.2 g on Day 0, at the age of 8 weeks. As control, twenty male BKS.Cg-m^+/− Lepr^db/J heterozygous mice were handled similarly. These mice weighed 19.6-25.1 g on Day 0, at the age of 8 weeks. Mice were divided into Groups (1) to (9), each group consisting of 10 mice.
On Day 0, two full-thickness wounds were made on each mouse in Groups A-I (n=80). […]
Immediately following the generation of the skin wound, the original wound was traced by using a fine point maker to outline the perimeter of the wound onto transparency paper (the mouse was immobilized using isoflurane anesthesia for this procedure), and wound size was then traced every 3 days. […] Outlines were digitized, quantified and analyzed using computer imaging software as described below.
The mice began daily dosing as detailed in Table 1 on the day of wounding. The mice continued to receive daily treatment until wound closure as determined by the study director and the client. Blood glucose levels were measured by glucometer prior to the first scheduled dosing and weekly thereafter-using blood collected by tail nick. Body weights were measured weekly beginning prior to treatment. […]
Raw data was reviewed (read and understood) for accuracy. […]

Compound	tolerability of the highest dose relative to maximum tolerated dose (MTD) ([1]; 200 mg/kg QD PO, administered with EtOH)	unplanned mice deaths outside of the study protocol ([1]; highest dose 200 mg/kg QD PO, Groups (2) and (8), formulation contained EtOH Days 0-8)	effect on body weight ([1]; mice, daily until wound closure, FIG. 1A-B)	no observed adverse effect level (NOAEL) [2] [mg/kg]	acute oral LD50 [3] [mg/kg]	wound healing over time [4]	wound closure rate ([5]; rate analysed for Days 0-8 (with ethanol) and Days 9-12 (no ethanol), FIG. 5E)	odds of closure of both wounds (hazard ratio, proportional hazard model) ([5]; relative to homozygous diabetic control Group (3), iroxanadine 10-200 mg/kg Groups (4)-(8), arimoclomol 200 mg/kg Group 9, QD PO, FIG. 4)
c1cncc(C2=NOCC(CN3CCCCC3)N2)c1 (centres unmarked) [iroxanadine, 5,6-dihydro-5(1-piperidinyl)-methyl-3-(3-pyridyl)-4H-1,2,4-oxadiazine]	may be above the maximum tolerated dose (MTD) and approaching LD50	Eight of the nine deaths	No significant effect on body weight was observed except in diabetic animals treated with the highest dose	400	3800	–	–	–
[O-][n+]1cccc(/C(Cl)=N/OC[C@H](O)CN2CCCCC2)c1 [arimoclomol, N-[2-hydroxy-3-(1-piperidinyl)propoxy]-pyridine-1-oxide-3-carboximidoyl chloride]	–	–	–	–	–	clearly showed an accelerated healing of wounds	statistically relevant increase in the wound closure rate	appeared to be effective in increasing the odds of wound closure
